“And” between values parts separate entries of the source, which are not always exact repeats. Equal entries are not always repeated. “Also recorded” adds a separate entry of the source. Where two headings read alike, the source gives them in different places. Marks after values point to notes of the source that are not given here. One block for each molecule: values may come before it.
Key:
[1] = test system: human endometrial adenocarcinoma cells (Ishikawa); test: Estrogenic potency in Ishikawa cells, induction of alkaline phosphatase (AlkP); type: cell-based; settings: for Ishikawa cell AlkP (RSA): relative stimulatory activity = EC50 of E2 / EC50 of analog x 100, E2 = 100, 3 days, ± SD
Method: Estrogenic Potency in Ishikawa Cells. The estrogenic potency of the E2-analogs was determined in an estrogen bioassay, the induction of alkaline phosphatase (AlkP) in human endometrial adenocarcinoma cells (Ishikawa) grown in 96-well microtiter plates as we have previously described.^38 In short, the cells are grown in phenol red free medium with estrogen depleted (charcoal stripped) bovine serum in the presence or absence of varying amounts of the steroids, across a dose range of at least 6 orders of magnitude. […] After 3 days, the cells are washed, frozen and thawed, and then incubated with 5 mM p-nitrophenyl phosphate, a chromogenic substrate for the AlkP enzyme, at pH 9.8. To ensure linear enzymatic analysis, the plates are monitored kinetically for the production of p-nitrophenol at 405 nm. […] Each compound was analyzed in at least 3 separate experiments performed in duplicate.

[2] = test system: esterase, rat hepatic microsomes; test: Esterase hydrolysis in rat hepatic microsomes; type: in vitro ADME
Method: Esterase. Esterase activity was measured in rat hepatic microsomes essentially using the conditions described^41 with some minor modifications. Briefly, rat hepatic microsomes were incubated with 50 μM E2-alkyl ester. Since the rates of reaction are widely different for the various esters, the incubation times and enzyme concentration were varied accordingly to obtain linear kinetics. In every experiment, E16-1,2 was run concurrently to normalize the rate of hydrolysis of each compound. At several appropriate time points during the incubation (37° C.), 100 μL aliquots were quenched with a solution of 2 μg of the internal standard, 6-ketoestradiol in 33 μL of CH3CN, 33 μL of THF and 5 μL of glacial HOAc. The mixture was centrifuged and analyzed for the esterase-hydrolysis product (the corresponding E2-carboxylic acid) by reversed phase HPLC: E16-1,0; E15-1,0; E15-2,0; and E15-3,0 by HPLC with system H-29. Peaks for the hydrolysis product (E16-1,0 tR=10.7 min; E15-1,0 tR=6.9 min; E15-2,0 tR=9.9 min; E15-3,0 tR=14 min;) and the internal standard (tR=11.8 min for system H-29 and tR=8.8 min for system H-30 were quantified at 280 nm on the HPLC UV detector. The UV absorbance was converted to nmoles of product by comparison to standard curves and corrected for recovery of the internal standard, 6-ketoestradiol. The velocity of the reaction for each ester, in nmol product/min/mg protein, was then normalized to the ester, E16-1,2 and is shown in Table 1 as relative hydrolytic activity (RHA) The enzymatic velocity for the hydrolysis of E16-1,2 was 2.34±0.8 (S.D.) nmol product/min/mg protein over the various experiments. All compounds were tested in triplicate in at least 2 separate experiments

[3] = target: T1, ER (ERα) in uterine cytosol (Rattus norvegicus, UniProt P06211); test: Competitive binding to the estrogen receptor in rat uterine cytosol; settings: for Estrogen Receptor (RBA): relative binding affinity, E2 = 100, rat uterine cytosol, 1 nM [3H]E2, ± SD; for RBA: relative to E2
T1 sequence (P06211 1-600): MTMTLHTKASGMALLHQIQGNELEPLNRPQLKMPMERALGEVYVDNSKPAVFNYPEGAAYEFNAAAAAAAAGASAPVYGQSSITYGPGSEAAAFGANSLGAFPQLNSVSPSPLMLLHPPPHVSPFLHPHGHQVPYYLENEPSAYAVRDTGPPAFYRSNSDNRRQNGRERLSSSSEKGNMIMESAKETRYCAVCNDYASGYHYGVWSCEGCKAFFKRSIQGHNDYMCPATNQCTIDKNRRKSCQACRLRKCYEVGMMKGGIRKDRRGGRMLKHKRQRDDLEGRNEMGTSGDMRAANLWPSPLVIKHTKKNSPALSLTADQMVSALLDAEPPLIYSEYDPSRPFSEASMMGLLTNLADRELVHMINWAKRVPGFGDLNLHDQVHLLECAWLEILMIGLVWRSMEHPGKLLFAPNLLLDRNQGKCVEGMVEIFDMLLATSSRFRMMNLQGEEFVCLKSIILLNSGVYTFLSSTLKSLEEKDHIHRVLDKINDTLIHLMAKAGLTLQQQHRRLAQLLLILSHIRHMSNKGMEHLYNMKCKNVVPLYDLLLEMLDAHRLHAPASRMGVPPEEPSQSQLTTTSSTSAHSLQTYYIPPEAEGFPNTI

[4] = target: T2, ligand binding domain (LBD) of human ERβ (M214-Q530) (Homo sapiens, UniProt Q92731); test: Competitive binding to the LBD of human ERβ in E. coli lysates; settings: RBA compared to E2 (=100), [3H]E2, ± SD
T2 construct: human ERβ (M214-Q530); made in house; host or cells: Escherichia coli (lysate used)

[5] = target: T3, ligand binding domain (LBD) of human ERα (M250-V595) (Homo sapiens, UniProt P03372); test: Competitive binding to the LBD of human ERα in E. coli lysates; settings: for selectivity / preference for ERα: ERα versus ERβ LBD; for ERα RBA: RBA compared to E2 (=100), LBD of human ERα in E. coli lysates, [3H]E2; for ERα RBA / ERα/ERβ (ratio of RBA): ± SD; for ERα/ERβ (ratio of RBA): human LBDs
T3 construct: human ERα (M250-V595); made in house; host or cells: Escherichia coli (lysate used)
T3 sequence (P03372 250-595): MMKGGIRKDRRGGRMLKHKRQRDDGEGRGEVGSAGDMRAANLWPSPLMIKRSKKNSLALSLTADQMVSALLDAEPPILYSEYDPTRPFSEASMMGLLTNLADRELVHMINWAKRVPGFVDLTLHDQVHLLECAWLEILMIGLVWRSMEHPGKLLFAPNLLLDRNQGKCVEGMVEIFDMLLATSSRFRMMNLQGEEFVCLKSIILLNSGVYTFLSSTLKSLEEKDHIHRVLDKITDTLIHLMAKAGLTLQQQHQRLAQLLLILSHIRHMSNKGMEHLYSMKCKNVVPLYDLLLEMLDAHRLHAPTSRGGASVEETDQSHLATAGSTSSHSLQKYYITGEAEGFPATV

uterus of immature rats = test: In vivo estrogen bioassay: uterine weight (uterotrophic assay, systemic); parameters: species or system rat; settings: for uterotrophic response (in words) / Uterotrophic R.A × 10^3: 100 μg dose; for Uterotrophic R.A × 10^3: activity relative to E2, × 10^3
Method: In Vivo Estrogen Bioassays: Uterine Weight. […] Control animals received sesame oil. On the fourth day, the animals were killed, the uteri were removed, dissected, blotted and weighed. Except where noted, each compound was assayed in 2 separate experiments with n=5.

[6] = test system: vagina of ovariectomized mice; test: In vivo estrogen bioassay: vaginal reductases (local); parameters: species or system mouse; settings: for Vaginal R.A × 10^3: activity relative to E2, × 10^3, 50 ng dose
Method: In Vivo Estrogen Bioassays: Vaginal reductases. […] The formazan product in the organic extract is quantified at 500 nm. Except where noted, each compound was assayed on at least 2 separate occasions with at least 5–6 replicates each time.

[7] = n.s. = not significantly different from the control

T2 sequence (Q92731 214-530): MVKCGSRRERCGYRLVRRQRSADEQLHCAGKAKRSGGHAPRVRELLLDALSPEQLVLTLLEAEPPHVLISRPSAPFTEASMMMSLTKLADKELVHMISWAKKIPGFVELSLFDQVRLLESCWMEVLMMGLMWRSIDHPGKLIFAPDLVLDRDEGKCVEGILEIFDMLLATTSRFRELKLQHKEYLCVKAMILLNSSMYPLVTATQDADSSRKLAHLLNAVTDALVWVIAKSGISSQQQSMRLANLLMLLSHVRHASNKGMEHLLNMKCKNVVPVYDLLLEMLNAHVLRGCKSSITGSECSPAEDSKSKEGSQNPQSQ

- Esterase (RHA) ([2]; relative hydrolytic activity in comparison to E16-1,2 (=100), 50 μM ester, 37° C., ± SD): 4.5 ± 0.1
Molecule: 2′-Fluoroethyl(3,17β-dihydroxyestra-1,3,5(10)-trien-15α-yl)formate [E15-1,2F1]
- Ishikawa cell AlkP (RSA) [1]: 3 ± 0.2

Molecule: CCCOC(=O)[C@H]1C[C@H](O)[C@@]2(C)CC[C@@H]3c4ccc(O)cc4CC[C@H]3[C@H]12 [E15-1,3, Propyl(3,17β-dihydroxyestra-1,3,5(10)-trien-15α-yl)formate]
- Ishikawa cell AlkP (RSA) [1]: 2 ± 1
- Estrogen Receptor (RBA) [3]: 17 ± 5

Molecule: C[C@]12CC[C@@H]3c4ccc(O)cc4CC[C@H]3[C@@H]1[C@@H](CC(=O)O)C[C@@H]2O [E15-2,0, (3,17β-Dihydroxyestra-1,3,5(10)-trien-15α-yl)acetic acid]
- Ishikawa cell AlkP (RSA) [1]: 0.2 ± 0.2
- Estrogen Receptor (RBA) [3]: <0.1

- ERβ RBA [4]: 0.3 ± 0.1
- enzymatic velocity for the hydrolysis ([2]; rat hepatic microsomes, 50 μM ester, 37° C., ± S.D. over the various experiments): 2.34±0.8 nmol product/min/mg protein
- selectivity / preference for ERα [5]: ~95 fold
- ERα RBA [5]: 27 ± 6
- ERα/ERβ (ratio of RBA) [5]: 95 ± 47
Molecule: CCOC(=O)[C@@H]1C[C@H]2[C@@H]3CCc4cc(O)ccc4[C@H]3CC[C@]2(C)[C@H]1O [E16-1,2, reference compound]

Molecule: COC(=O)C[C@H]1C[C@H](O)[C@@]2(C)CC[C@@H]3c4ccc(O)cc4CC[C@H]3[C@H]12 [E15-2,1, Methyl(3,17β-dihydroxyestra-1,3,5(10)-trien-15α-yl)acetate]
- Ishikawa cell AlkP (RSA) [1]: 1 ± 1
- Esterase (RHA) [2]: 31 ± 6
- Estrogen Receptor (RBA) [3]: 5 ± 3
- RBA [3]: 5%

Molecule: CCOC(=O)C[C@H]1C[C@H](O)[C@@]2(C)CC[C@@H]3c4ccc(O)cc4CC[C@H]3[C@H]12 [E15-2,2, Ethyl(3,17β-dihydroxyestra-1,3,5(10)-trien-15α-yl)acetate]
- Ishikawa cell AlkP (RSA) [1]: 0.4 ± 0.5
- Esterase (RHA) [2]: 71 ± 7
- Estrogen Receptor (RBA) [3]: 2 ± 0
- RBA [3]: 2%

Molecule: COC(=O)CC[C@H]1C[C@H](O)[C@@]2(C)CC[C@@H]3c4ccc(O)cc4CC[C@H]3[C@H]12 [E15-3,1, Methyl 3-(3,17β-dihydroxyestra-1,3,5(10)-trien-15α-yl)propionate]
- Ishikawa cell AlkP (RSA) [1]: 0
- Esterase (RHA) [2]: 248 ± 26
- Estrogen Receptor (RBA) [3]: 0.8 ± 0.1

Molecule: CCOC(=O)[C@H]1C[C@H](O)[C@@]2(C)CC[C@@H]3c4ccc(O)cc4CC[C@H]3[C@H]12 [E15-1,2, Ethyl(3,17β-dihydroxyestra-1,3,5(10)-trien-15α-yl)formate]
- ERβ RBA [4]: 7 ± 2
- Ishikawa cell AlkP (RSA) [1]: 18 ± 10
- RSA ([1]; relative to E2): 18%
- uterotrophic response (in words) (uterus of immature rats): neither of these 15α-substituted estrogens produced a statistically significant uterotrophic response; also recorded: neither of these 15α-alkyl esters produce a statistically significant estrogenic response in the uterus; also recorded: inactive in the uterotrophic assay
- uterotrophic stimulation at 300 μg dose, equivalent ng of E2 (uterus of immature rats; 300 μg dose, statistically significant (P<0.05)): 5 ng of E2
- Uterotrophic R.A × 10^3 (uterus of immature rats; [7]): n.s.
- Esterase (RHA) [2]: 2.3 ± 0.1
- Estrogen Receptor (RBA) [3]: 25 ± 12
- RBA [3]: 25%
- Vaginal R.A × 10^3 [6]: 0.42
- activity in the vaginal assay (in words) ([6]; mouse, in vivo): very active in the vaginal assay
- selectivity / preference for ERα [5]: about 3 fold
- ERα RBA [5]: 22 ± 5
- ERα/ERβ (ratio of RBA) [5]: 3 ± 0.6

Molecule: CCOC(=O)CC[C@H]1C[C@H](O)[C@@]2(C)CC[C@@H]3c4ccc(O)cc4CC[C@H]3[C@H]12 [E15-3,2, Ethyl 3-(3,17β-dihydroxyestra-1,3,5(10)-trien-15α-yl)propionate]
- Ishikawa cell AlkP (RSA) [1]: 0
- Esterase (RHA) [2]: 674 ± 14
- Estrogen Receptor (RBA) [3]: <0.1

Molecule: C[C@]12CC[C@@H]3c4ccc(O)cc4CC[C@H]3[C@@H]1[C@@H](CCC(=O)O)C[C@@H]2O [E15-3,0, 3-(3,17β-Dihydroxyestra-1,3,5(10)-trien-15α-yl)propionic acid]
- Ishikawa cell AlkP (RSA) [1]: 0
- Estrogen Receptor (RBA) [3]: 0

Molecule: CCCCOC(=O)[C@H]1C[C@H](O)[C@@]2(C)CC[C@@H]3c4ccc(O)cc4CC[C@H]3[C@H]12 [E15-1,4, Butyl(3,17β-dihydroxyestra-1,3,5(10)-trien-15α-yl)formate]
- Ishikawa cell AlkP (RSA) [1]: 0.7 ± 0.4
- Esterase (RHA) [2]: 7 ± 0.5
- Estrogen Receptor (RBA) [3]: 8 ± 2

Molecule: C[C@]12CC[C@@H]3c4ccc(O)cc4CC[C@H]3[C@@H]1CCC2=O [Compound E1, estrone, reference compound]
- Ishikawa cell AlkP (RSA) [1]: 4 ± 2

Molecule: CC(C)OC(=O)[C@H]1C[C@H](O)[C@@]2(C)CC[C@@H]3c4ccc(O)cc4CC[C@H]3[C@H]12 [E15-1,3i, Isopropyl(3,17β-dihydroxyestra-1,3,5(10)-trien-15α-yl)formate]
- Ishikawa cell AlkP (RSA) [1]: 0.3 ± 0.06
- Esterase (RHA) [2]: 0.4 ± 0.1
- RHA ([2]; rat, 50 μM): 0.3%
- Estrogen Receptor (RBA) [3]: 5 ± 4

Molecule: C[C@]12CC[C@@H]3c4ccc(O)cc4CC[C@H]3[C@@H]1C[C@@H](C(=O)OCCF)[C@@H]2O [E16-1,2F1, reference compound]
- uterotrophic response (in words) (uterus of immature rats): small but statistically significant response
- Uterotrophic effect 100 μg dose (ng E2 equivalent) (uterus of immature rats; 100 μg total dose s.c. over 3 days, immature rats, compared to 5 ng E2, brackets = range, n.s. = not significantly different from the control): 2 ng E2 equivalent and 2^b ng E2 equivalent
- Uterotrophic R.A × 10^3 (uterus of immature rats; [7]): 0.02
- Vaginal effect 50 ng dose (pg E2 equivalent) ([6]; 50 ng instilled into the vagina, ovariectomized mice, compared to 50 pg E2, brackets = range): 21^b pg E2 equivalent
- Vaginal R.A × 10^3 [6]: 0.42

Molecule: C[C@]12CC[C@@H]3c4ccc(O)cc4CC[C@H]3[C@@H]1[C@@H](C(=O)O)C[C@@H]2O [E15-1,0, 3,17β-Dihydroxyestra-1,3,5(10)-trien-15α-carboxylic acid]
- estrogenic activity in the Ishikawa cell assay (in words) [1]: nor does it have estrogenic activity; also recorded: very low, not measurable
- binding to the estrogen receptor (in words) [3]: does not bind to the estrogen receptor; also recorded: very low, not measurable

Source: patent US7015211B2 (Yale University, priority 2003, dated 2006)
